# According to publication PMC11570809, “Novel N-phenyl-2-(aniline) benzamide hydrochloride salt development for colon cancer therapy” (Frontiers in Pharmacology, 2024):
# “Also recorded” adds a separate entry of the source. Where a name gives a salt, the structure may show the parent alone.
# Legend:
# [1] = test system: HuH7; test: MTT anti-proliferation assay, HuH7; format: cell-based, human; settings: 72 h, read-out: IC50 ± SD HuH7
# [2] = biological target: T1, Human COX-2 (Homo sapiens, UniProt P35354); test: COX-2 inhibition assay (Human COX-2 Inhibitor Screening Kit); format: biochemical
# T1 construct: purchased Beyotime S0168
# T1 sequence (P35354 18-604): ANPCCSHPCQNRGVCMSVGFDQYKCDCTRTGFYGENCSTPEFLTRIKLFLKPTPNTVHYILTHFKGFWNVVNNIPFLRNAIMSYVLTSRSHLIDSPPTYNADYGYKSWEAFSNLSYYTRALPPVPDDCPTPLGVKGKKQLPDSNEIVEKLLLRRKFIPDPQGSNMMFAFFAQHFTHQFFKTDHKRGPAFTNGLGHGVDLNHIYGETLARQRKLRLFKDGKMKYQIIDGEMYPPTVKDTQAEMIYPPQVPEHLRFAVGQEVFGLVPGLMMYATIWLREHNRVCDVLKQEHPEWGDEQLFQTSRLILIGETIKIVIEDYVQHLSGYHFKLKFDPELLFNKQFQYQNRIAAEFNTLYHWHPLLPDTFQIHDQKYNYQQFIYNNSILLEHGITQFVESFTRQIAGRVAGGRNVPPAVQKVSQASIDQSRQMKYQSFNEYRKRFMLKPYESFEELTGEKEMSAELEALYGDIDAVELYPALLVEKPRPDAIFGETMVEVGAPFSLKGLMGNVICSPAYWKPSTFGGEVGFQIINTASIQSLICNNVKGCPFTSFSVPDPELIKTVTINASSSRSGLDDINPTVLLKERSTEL
# Experimental: The COX-2 inhibitory activity of all the synthesized compounds was measured by the Human COX-2 Inhibitor Screening Kit (Beyotime, catalog no. S0168), and the specific steps were followed strictly according to the instructions. The lead compound N53 was also tested for reference purposes. The absorbance was measured at an excitation wavelength of 560 nm and an emission wavelength of 590 nm in a microplate reader. Each experimental condition was performed in triplicate and averaged.
# [3] = test system: HT29 cells; test: Plane colony assay, HT29; format: cell-based, human; settings: HT29, 1, 2 and 4 µM
# Experimental: (§1) In 6-well plates, HT29 cells and RKO cells (1 × 10^3 cells/well) were inoculated and maintained overnight. Then treated with N53 and N53·HCl at different concentrations for 24 h and with normal culture-medium for 7 days respectively. After that, removed supernatant and fixed by 4% paraformaldehyde for 15 min. Then fixed cells were stained with 1% crystal violet dye for 15 min and rinsed with water. Finally, colonies were counted according to rules that nonoverlapping groups of at least 50 cells. The data are all derived from three parallel experiments (n = 3) and expressed as mean ± SD.
# [4] = test system: PC-3; test: MTT anti-proliferation assay, PC-3; format: cell-based; settings: Homo sapiens, PC-3, 72 h, read-out: IC50 ± SD PC-3
# [5] = test system: RKO cells; test: Plane colony assay, RKO; format: cell-based, human; settings: RKO, 1, 2 and 4 µM
# Experimental: as §1
# [6] = Hygroscopicity and stability of the salt forms; format: physicochemical; settings: solid salt
# [7] = Acute toxicity study (OECD guidelines), single dose by gavage; format: in vivo
# Experimental: Acute toxicity studies were conducted for N53·HCl following OECD guidelines. Sixteen Kunming mice were purchased from SPF (Beijing) Biotechnology Co., Ltd. The mice were randomly divided into two groups (n = 8, 4 female and 4 male mice per group). The control group was treated with saline containing 10% DMSO, 10% Solutol HS -15, and the experimental group was treated with N53·HCl at a dose of 1,000 mg/kg (suspended in saline containing 10% DMSO and 10% Solutol HS -15).
# All treatments were administered with a single dose by gavage. […] It can be seen that N53·HCl is a safe agent with an oral LD50 of more than 1,000 mg/kg in mice.
# [8] = test system: HT29; test: MTT anti-proliferation assay, HT29; format: cell-based, human; settings: 72 h, read-out: IC50 ± SD HT29
# Experimental: The anti-proliferation activities of synthesized compounds to colon cancer cell lines were measured by the MTT (3-[4,5-dimethyl-2-thiazolyl]-2,5-diphenyl-2H-tet razolium bromide) assay. First, the cell suspension was prepared by trypsin and the corresponding medium, cells were diluted to 5 × 10^5 cells/mL, and 96-well plates were added 200 μL per well. The plates were maintained at 37°C in a humidified atmosphere containing 5% CO2 overnight. Then compounds at gradient concentrations were added to cells in the logarithmic phase to make the final concentration at 0.5, 1, 2, 4, 8, 16, and 32 μM. The cells were treated with tested compounds for 72 h, and the growth curve assay was tested in 24 h. When the time was up, 20 μL of MTT solution (5 mg/mL in PBS) was added into each well to incubate for 4 h at 37°C. Then the supernatant liquid was removed, 150 μL DMSO was added into every well to dissolve formazan crystals and read the absorbance at 570 nm by Spark microplate spectrophotometer (Tecan, Swiss). The IC50 values were analyzed by IBM SPASS Statistics 25.0 software. The data are all derived from three parallel experiments (n = 3) and expressed as mean ± SD.
SMILES,IC50 [1] [µM],Inhibition rate (%) of COX-2 (2 μM) [2] [%],Number of cell clones formed [3],IC50 [4] [µM],Number of cell clones formed [5],Hygroscopicity [6],Stability [6],"Gross and histological (H&E) examination of major organs (heart, liver, kidney, spleen) ([7]; 1,000 mg/kg single dose by gavage, after 14 days)","Symptoms and body weight compared to vehicle-treated control ([7]; 1,000 mg/kg single dose by gavage, monitored 14 days)","LD50 at 14 days ([7]; both sexes, Kunming, mouse, in vivo, po) [mg/kg]",IC50 [8] [µM]
"Cc1c(Cl)cccc1Nc1ccccc1C(=O)Nc1ccc(N2CCN(C)CC2)cc1 [Compound N53, 2-((3-chloro-2-methylphenyl)amino)-N-(4-(4-methylp-iperazin-1-yl)phenyl)benzamide]",3.67 ± 0.38,3.6 ± 1.1,–,–,–,–,–,–,–,–,–
"Cc1c(Cl)cccc1Nc1ccccc1C(=O)Nc1ccc(N2CCN(C)CC2)cc1 [N53·HCl, 4-(4-(2-((3-chloro-2-methylphenyl)amino)ben-zamido)phenyl)-1-methylpiperazin-1-ium]",11.7 ± 0.75,32.5 ± 7.8,decreased significantly and dose-dependently,13.7 ± 0.8,decreased significantly and dose-dependently,low in hygroscopicity,relatively stable under various conditions,no obvious toxic effects; also recorded: no significant abnormalities,no significant changes in symptoms and body weight,> 1000,2.95 ± 0.08
